Target: T1, Arginase II (Mus musculus, UniProt O08691)
T1 construct: Tissue lysates of kidney were prepared using lysis buffer; from tissue; host or cells: kidney of C57BL/6 mice
T1 sequence (O08691 23-354): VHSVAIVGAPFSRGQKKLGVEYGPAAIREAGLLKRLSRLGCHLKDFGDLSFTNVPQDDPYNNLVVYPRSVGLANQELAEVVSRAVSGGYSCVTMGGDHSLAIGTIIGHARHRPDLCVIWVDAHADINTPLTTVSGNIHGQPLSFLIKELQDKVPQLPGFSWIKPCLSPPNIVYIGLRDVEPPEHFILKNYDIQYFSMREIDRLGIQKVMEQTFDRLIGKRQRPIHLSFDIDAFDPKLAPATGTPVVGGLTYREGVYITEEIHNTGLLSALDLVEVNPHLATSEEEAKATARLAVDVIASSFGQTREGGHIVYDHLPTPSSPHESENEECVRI
Experiment: Arginase II inhibitory activity, enzyme solution from mouse kidney lysate, urea determined at 550 nm
Assay type: biochemical
Conditions: kidney lysates of C57BL/6 mice; 50 % inhibition relative to vehicle control; average of three repeated experiments
Method: Arginase II solution was prepared from kidney lysates of anesthetized C57BL/6 mice (White et al. [2006]). Tissue lysates of kidney were prepared using lysis buffer (50 mM Tris–HCl, pH7.5, 0.1 mM EDTA and protease inhibitors) by homogenization at 4 °C followed by centrifugation for 20 min at 14,000×g at 4 °C. Briefly, […] lysates were added to Tris–HCl. The hydrolysis reaction of L-arginine by Arg was performed by incubating the mixture containing activated Arg and was stopped by adding acid solution. For calorimetric determination of urea, α-isonitrosopropiophenone was added, and the mixture was heated at 100 °C for 45 min. After placing the sample in the dark for 10 min at room temperature, the urea concentration was determined spectrophotometrically by the absorbance at 550 nm (White et al. [2006]).

| Structure (SMILES) | IC50 [µM] |
| --- | --- |
| COc1c(O)cc(O)c2c(=O)cc(-c3ccccc3)oc12 [Compound 2, wogonin] | > 200 |
| O=c1cc(-c2ccc(O)cc2)oc2cc(O)cc(O)c12 [Compound 4, apigenin] | > 200 |
| O=C1C[C@@H](c2ccc(O)cc2)Oc2cc(O)cc(O)c21 [Compound 6, naringenin] | > 200 |
| O=C1C[C@@H](c2ccc(O)cc2)Oc2cc(O)cc(O[C@@H]3O[C@H](CO)[C@@H](O)[C@H](O)[C@H]3O)c21 [Compound 7, naringenin-5-O-β-D-glucopyranoside] | > 200 |
| COc1cc(O)c2c(c1OC)OC(c1cc(O)ccc1OC1OC(CO)C(O)C(O)C1O)CC2=O [Compound 8, (2S)-5,5′-dihydroxy-7,8-dimethoxyflavanone-2′-O-β-D-glucopyranoside] | > 200 |

Results, then the molecule that gave them:

| IC50 [µM] | Structure (SMILES) |
| --- | --- |
| > 200 | COc1ccc([C@H]2C[C@H](OC)c3c(OC)c(OC)c(OC)c(OC)c3O2)cc1 [Compound 1, (2R,4S)-4,5,6,7,8,4′-hexamethoxylflavan] |
| 25.1 ± 2.6 | COc1ccccc1[C@@H]1CC(=O)c2c(O)cc(O)c(OC)c2O1 [Compound 3, (2S)-5,7-dihydroxy-8,2′-dimethoxyflavanone] |
| 11.6 ± 1.2 | COc1cc(O)c2c(c1OC)O[C@H](c1cc(O)ccc1O)CC2=O [Compound 5, (2S)-5,2′,5′-trihydroxy-7,8-dimethoxyflavanone] |
| 1 ± 0.1 | OC[C@H]1O[C@@H](Oc2cc(/C=C/c3cc(O)cc(O)c3)ccc2O)[C@H](O)[C@@H](O)[C@@H]1O [PG, piceatannol-3′-O-β-D-glucopyranoside, reference compound] |

System: not given
Experiment: not given
Conditions: not given

| melting point [°C] | Structure (SMILES) |
| --- | --- |
| 218 to 220 | COc1ccc([C@H]2C[C@H](OC)c3c(OC)c(OC)c(OC)c(OC)c3O2)cc1 [Compound 1, (2R,4S)-4,5,6,7,8,4′-hexamethoxylflavan] |

— publication PMC3731522, “Arginase II inhibitory activity of flavonoid compounds from Scutellaria indica” (Archives of Pharmacal Research, 2013)
